According to PubChem BioAssay (NCI):
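Five compound concentrations were applied to cells in 96-well plates for 48 hours; endpoints were derived by simple linear interpolation of the resulting dose-response curve. At the GI50, growth is halved. The concentration for full growth arrest is given as TGI.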

Legend:
Experiment in all cases: NCI tumour cell line growth inhibition, 48 h
[1] = system: CAKI-1 renal
[2] = system: HT29 colon
[3] = system: LOX IMVI melanoma
[4] = system: NCI/ADR-RES ovarian
[5] = system: OVCAR-3 ovarian
[6] = system: 786-0 renal
[7] = system: HCT-15 colon
[8] = system: RXF 393 renal
[9] = system: SF-295 CNS
[10] = system: A498 renal
[11] = system: TK-10 renal
[12] = system: K-562 leukemia
[13] = system: SK-MEL-28 melanoma
[14] = system: SF-539 CNS
[15] = system: SR leukemia
[16] = system: OVCAR-8 ovarian
[17] = system: HOP-62 NSCLC
[18] = system: COLO 205 colon
[19] = system: OVCAR-5 ovarian
[20] = system: MDA-MB-435
[21] = system: M14 melanoma
[22] = system: UACC-257 melanoma
[23] = system: NCI-H460 lung
[24] = system: UACC-62 melanoma
[25] = system: OVCAR-4 ovarian
[26] = system: SK-OV-3 ovarian
[27] = system: NCI-H522 lung
[28] = system: SK-MEL-5 melanoma
[29] = system: IGROV1 ovarian
[30] = system: T-47D breast
[31] = system: EKVX NSCLC
[32] = system: KM12 colon
[33] = system: HCC-2998 colon
[34] = system: SK-MEL-2 melanoma
[35] = system: HOP-92 NSCLC
[36] = system: ACHN renal
[37] = system: HL-60(TB) leukemia
[38] = system: U251 CNS
[39] = system: A549 NSCLC
[40] = system: PC-3 prostate
[41] = system: BT-549 breast
[42] = system: CCRF-CEM leukemia
[43] = system: MALME-3M melanoma
[44] = system: MCF7 breast
[45] = system: SNB-19 CNS
[46] = system: SNB-75 CNS
[47] = system: RPMI-8226 leukemia
[48] = system: NCI-H226 lung
[49] = system: MDA-MB-231 breast
[50] = system: HCT-116 colon
[51] = system: DU-145 prostate
[52] = system: UO-31 renal
[53] = system: SF-268 CNS
[54] = system: HS 578T breast
[55] = system: SW-620 colon

Cc1ccc2c(n1)C(=O)C(Cl)=C(Nc1ccccc1C(=O)OC(C)(C)C)C2=O
GI50 [1]: 1.55 µM
TGI [1]: 2.9 µM
GI50 [2]: 2.94 µM
TGI [2]: 8.52 µM
GI50 [3]: 1.02 µM
TGI [3]: 2.31 µM
GI50 [4]: 2.17 µM
TGI [4]: 5.35 µM
GI50 [5]: 1.31 µM
TGI [5]: 2.96 µM
GI50 [6]: 1.69 µM
TGI [6]: 3.22 µM
GI50 [7]: 1.37 µM
TGI [7]: 3.32 µM
GI50 [8]: 1.62 µM
TGI [8]: 2.99 µM
GI50 [9]: 4.25 µM
TGI [9]: 22.5 µM
GI50 [10]: 12.4 µM
TGI [10]: 47.8 µM
GI50 [11]: 1.81 µM
TGI [11]: 3.28 µM
GI50 [12]: 0.549 µM
TGI [12]: > 100 µM
GI50 [13]: 1.66 µM
TGI [13]: 3.12 µM
GI50 [14]: 1.7 µM
TGI [14]: 3.18 µM
GI50 [15]: 0.442 µM
TGI [15]: 7.86 µM
GI50 [16]: 2.83 µM
TGI [16]: 9.32 µM
GI50 [17]: 3.59 µM
TGI [17]: 18.3 µM
GI50 [18]: 1.77 µM
TGI [18]: 3.48 µM
GI50 [19]: 2.05 µM
TGI [19]: 4.1 µM
GI50 [20]: 1.71 µM
TGI [20]: 3.19 µM
GI50 [21]: 1.73 µM
TGI [21]: 3.38 µM
GI50 [22]: 1.69 µM
TGI [22]: 3.3 µM
GI50 [23]: 3.08 µM
TGI [23]: 11.3 µM
GI50 [24]: 1.82 µM
TGI [24]: 3.98 µM
GI50 [25]: 1.4 µM
TGI [25]: 2.78 µM
GI50 [26]: > 100 µM
TGI [26]: > 100 µM
GI50 [27]: 1.83 µM
TGI [27]: 3.86 µM
GI50 [28]: 1.59 µM
TGI [28]: 2.98 µM
GI50 [29]: 1.73 µM
TGI [29]: 3.43 µM
GI50 [30]: 1.84 µM
TGI [30]: 4.91 µM
GI50 [31]: 1.59 µM
TGI [31]: 3.01 µM
GI50 [32]: 6.07 µM
TGI [32]: 50.4 µM
GI50 [33]: 1.75 µM
TGI [33]: 3.27 µM
GI50 [34]: 2.27 µM
TGI [34]: 6.78 µM
GI50 [35]: 1.53 µM
TGI [35]: 2.89 µM
GI50 [36]: 1.75 µM
TGI [36]: 3.14 µM
GI50 [37]: 0.394 µM
TGI [37]: 1.9 µM
GI50 [38]: 2.42 µM
TGI [38]: 6.81 µM
GI50 [39]: 44.5 µM
TGI [39]: > 100 µM
GI50 [40]: 1.78 µM
TGI [40]: 4.19 µM
GI50 [41]: 2.9 µM
TGI [41]: 9.04 µM
GI50 [42]: 0.425 µM
TGI [42]: > 100 µM
GI50 [43]: 1.66 µM
TGI [43]: 3.27 µM
GI50 [44]: 0.813 µM
TGI [44]: 3.58 µM
GI50 [45]: 3.3 µM
TGI [45]: 15.4 µM
GI50 [46]: 14.7 µM
TGI [46]: > 100 µM
GI50 [47]: 1.78 µM
TGI [47]: 5.9 µM
GI50 [48]: 6.77 µM
TGI [48]: > 100 µM
GI50 [49]: 1.58 µM
TGI [49]: 3.26 µM
GI50 [50]: 1.61 µM
TGI [50]: 3.15 µM
GI50 [51]: 1.77 µM
TGI [51]: 3.32 µM
GI50 [52]: 1.42 µM
TGI [52]: 2.74 µM
GI50 [53]: 3.06 µM
TGI [53]: 14.7 µM
GI50 [54]: 2.39 µM
TGI [54]: 7.54 µM
GI50 [55]: 1.84 µM
TGI [55]: 6.26 µM
